Measured values reported in patent US20220105150A1, “AMPHIPATHIC ALPHA-HELICAL ANTIMICROBIAL PEPTIDES TREAT INFECTIONS BY GRAM-NEGATIVE PATHOGENS” (priority 2019, published 2022).
≈ marks a conversion by molar mass, not a printed value. Values belong to the molecule of their own block, whether it stands above or below them. Square brackets hold non-standard residues; d marks the D form. Dab = NCC[C@H](N)C(=O)O

Legend:
[1] = tested on: Acinetobacter baumannii isolates resistant to classical antibiotics; assay type: cell-based; details: isolates resistant to classical antibiotics
Text: Thus, shortening the number of carbon atoms between the side-chain amino group and the α-carbon atom from four (Lys) to one (diaminopropionic acid) had very little effect on antibacterial activity (Table 2). We also determined the antibacterial activity of our five AMPs against 20 additional Acinetobacter baumannii isolates from four continents, 12 different countries and 17 different cities that were resistant to 18 different antibiotics. […] Thus, it is very clear that changing the type of positively-charged residue on the polar face of these AMPs had very little effect on the antibacterial activities.

human red blood cells = assay: Hemolytic activity on human red blood cells; details: for HC50: red cells of human, 18 h
Method: For comparison, the inventors also determined the hemolytic activity after 18 hours at 37° C. Hemolysis can be determined with red blood cells (RBC) from various species including human red blood cells (hRBC).
(§1) The coupling procedure used 5 equivalents of Fmoc-D-amino acid or Fmoc-L-amino acid and HCTU (O-(1H-6-chlorobenzotriazole-1-yl)-1,1,3,3-tetramethyluronium hexafluorophosphate) and 6-Cl-HOBt (1-hydroxy-6-chloro-benztriazole) at 4.5 equivalents in DMF (Fisher Scientific, Denver, Colo.) and N-diisopropylethylamine (DIPEA) 10 equivalents (Oakwood Products, Inc., Estill, S.C.) in N-methyl-2-pyrrolidinone (NMP) (Fisher Scientific, Denver, Colo.) with the first and second couplings at room temperature for 30 min each. The deprotection procedure (removal of Fmoc protecting group) was carried out by treatment of the resin with 0.1 M HOBt (1-hydroxybenzotriazole) in DMF with 20% piperidine for 30 min. […] The resin was removed by filtration and peptide was precipitated with ice-cooled ethyl ether on ice for 15 min. Ether was decanted, the peptide was washed twice with ether and redissolved in acetonitrile/water (1:1, with 0.2% TFA) and the solution lyophilized to obtain the crude peptide. • Analytical and Preparative Purification by Reversed-Phase Chromatography: Analytical RP-HPLC: Column, Luna C18 (2), 250×4.6 mm I.D., 5 μm particle size, 100 Å pore size from Phenomenex (Torrance, Calif.). Run conditions: linear AB gradient (1% acetonitrile/min, starting from 2% acetonitrile) at a flow-rate of 1 ml/min, where eluent A is 0.2% aq. TFA and eluent B is 0.18% TFA in acetonitrile; temperature, 30° C. Preparative RP-HPLC: Peptides were dissolved in 0.2% aq. TFA containing 2% acetonitrile to a final concentration of 10 mg/ml. Following filtration through a 0.45 μm Millipore filter and subsequently through a 0.22 μm filter, the peptide solutions were loaded onto the column via multiple 20-ml injections into a 20-ml injection loop at a flow-rate of 10 ml/min. Column, Luna C18 (2), 250×30 mm I.D., 5 um particle size, 100 Å pore size from Phenomenex. Run conditions: 2% acetonitrile/min gradient up to an acetonitrile concentration 10% below that required to elute the peptide during analytical RP-HPLC, then shallow gradient elution (0.05% or 0.1% acetonitrile/min depending on the complexity of impurities near the product of interest on the analytical run of the crude peptide) at a flow-rate of 10 ml/min (same eluents as shown above for analytical RP-HPLC); at room temperature. • Temperature Profiling of Peptides on Reversed-phase HPLC to Measure Dimerization and Oligomerization: Purified peptides were analyzed on an Agilent 1200 series liquid chromatograph for temperature profiling using a Zorbax 300 SB-C8 column (150 mm×2.1 mm I.D.; 5 μm particle size, 300 Å pore size) from Agilent Technologies. […] Temperature profiling was carried out on peptide mixtures run at each temperature in 2° C. increments from 5° C. to 41° C. and 10° C. increments from 5° C. to 75° C. Twenty minutes was allowed between runs for temperature equilibration. • Characterization of Helical Structure: The mean residue molar ellipticities of peptides were determined by circular dichroism (CD) spectroscopy, using a Jasco J-815 spectropolarimeter (Jasco Inc. Easton, Md., USA) at 5° C. under KP buffer (50 mM NaH2PO4/Na2HPO4/100 mM KCl, pH 7.0) as well as in the presence of an α-helix inducing solvent, 2,2,2-trifluoroethanol, TFE, (50 mM NaH2PO4/Na2HPO4/100 mM KCl, pH 7.0 buffer/50% TFE). A 10-fold dilution of an approximately 500 μM stock solution of the peptide analogs was loaded into a 0.1 cm quartz cell and its ellipticity scanned from 195 to 250 nm.

[2] = tested on: Acinetobacter baumannii strains resistant to Polymyxin B and Colistin; details: strains resistant to Polymyxin B and Colistin, 24 h
Text: as §1

serum proteins = assay: cell-based or functional assay
[3] = biological target: the molecule itself; assay: RP-HPLC temperature profiling, self-association (dimerization/oligomerization) against random coil control RC

Molecule: CC(=O)N[C@H](CCCCN)C(=O)N[C@H](CC(C)C)C(=O)N[C@@H](CN)C(=O)N[C@H](CO)C(=O)N[C@H](CC(C)C)C(=O)N[C@H](CC(C)C)C(=O)N[C@@H](CN)C(=O)N[C@@H](C(=O)N[C@H](CC(C)C)C(=O)N[C@H](CO)C(=O)N[C@@H](CN)C(=O)N[C@H](C)C(=O)N[C@H](CCCCN)C(=O)N[C@H](C)C(=O)N[C@H](C)C(=O)N[C@H](CCCCN)C(=O)N[C@H](CC(C)C)C(=O)N[C@@H](CN)C(=O)N[C@@H](C(=O)N[C@H](CC(C)C)C(=O)N[C@H](CC(C)C)C(=O)N[C@@H](CN)C(=O)N[C@H](C)C(=O)N[C@H](CC(C)C)C(=O)N[C@H](CO)C(=O)N[C@@H](CN)C(N)=O)[C@H](C)O)[C@H](C)O [D105(Lys^1-6Dap-1), Ac-KL(L-Dap)SLL(L-Dap)TLS(L-Dap)AKAAKL(L-Dap)TLL(L-Dap)ALS(L-Dap)-amide]
MIC MB9941 [2]: 0.8 µM (≈ 2.09 µg/mL)
MIC MB9949 [2]: 0.8 µM (≈ 2.09 µg/mL)
MIC MB9951 [2]: 3.0 µM (≈ 7.84 µg/mL)
MIC MB9952 [2]: 0.8 µM (≈ 2.09 µg/mL)
MIC MB9953 [2]: 3.0 µM (≈ 7.84 µg/mL)
MIC MB9963 [2]: 1.5 µM (≈ 3.92 µg/mL)
MIC 101887 [1]: 0.8 µM (≈ 2.09 µg/mL)
MIC 961997 [1]: 1.5 µM (≈ 3.92 µg/mL)
MIC 963618 [1]: 0.8 µM (≈ 2.09 µg/mL)
MIC 964304 [1]: 1.5 µM (≈ 3.92 µg/mL)
MIC 977751 [1]: 0.8 µM (≈ 2.09 µg/mL)
MIC 981653 [1]: 0.8 µM (≈ 2.09 µg/mL)
MIC 1002956 [1]: 0.8 µM (≈ 2.09 µg/mL)
MIC 1007660 [1]: 0.8 µM (≈ 2.09 µg/mL)
MIC 1010282 [1]: 0.8 µM (≈ 2.09 µg/mL)
MIC 1035166 [1]: 0.8 µM (≈ 2.09 µg/mL)
HC50 Fold Improvement (human red blood cells): >287
HC50 (human red blood cells): >1148 µM

B1: D101(Lys1Ser26-5Lys-1) (peptide)
peptide: Ac-[dK][dL][dK][dS][dL][dL][dK][dT][dL][dS][dK][dA][dK][dA][dA][dK][dL][dK][dT][dL][dL][dK][dA][dL][dS][dS]-NH2
SMILES: CC(=O)N[C@H](CCCCN)C(=O)N[C@H](CC(C)C)C(=O)N[C@H](CCCCN)C(=O)N[C@H](CO)C(=O)N[C@H](CC(C)C)C(=O)N[C@H](CC(C)C)C(=O)N[C@H](CCCCN)C(=O)N[C@@H](C(=O)N[C@H](CC(C)C)C(=O)N[C@H](CO)C(=O)N[C@H](CCCCN)C(=O)N[C@H](C)C(=O)N[C@H](CCCCN)C(=O)N[C@H](C)C(=O)N[C@H](C)C(=O)N[C@H](CCCCN)C(=O)N[C@H](CC(C)C)C(=O)N[C@H](CCCCN)C(=O)N[C@@H](C(=O)N[C@H](CC(C)C)C(=O)N[C@H](CC(C)C)C(=O)N[C@H](CCCCN)C(=O)N[C@H](C)C(=O)N[C@H](CC(C)C)C(=O)N[C@H](CO)C(=O)N[C@H](CO)C(N)=O)[C@H](C)O)[C@H](C)O
notes: Designed 26-residue AMP; Lys at 3, 7, 11, 18, 22; Ser26; Lys13/Lys16 specificity determinants; also called D101(5 Lys-1)
MIC (µM) against A. baumannii strain 649 in 25% human serum (no serum: 0.7) (serum proteins): 0.7 µM
PA (self-association parameter) [3]: 6 min

B2: D102(Lys1Ser26-5Dab-1) (peptide)
peptide: Ac-[dK][dL][Dab][dS][dL][dL][Dab][dT][dL][dS][Dab][dA][dK][dA][dA][dK][dL][Dab][dT][dL][dL][Dab][dA][dL][dS][dS]-NH2
SMILES: CC(=O)N[C@H](CCCCN)C(=O)N[C@H](CC(C)C)C(=O)N[C@@H](CCN)C(=O)N[C@H](CO)C(=O)N[C@H](CC(C)C)C(=O)N[C@H](CC(C)C)C(=O)N[C@@H](CCN)C(=O)N[C@@H](C(=O)N[C@H](CC(C)C)C(=O)N[C@H](CO)C(=O)N[C@@H](CCN)C(=O)N[C@H](C)C(=O)N[C@H](CCCCN)C(=O)N[C@H](C)C(=O)N[C@H](C)C(=O)N[C@H](CCCCN)C(=O)N[C@H](CC(C)C)C(=O)N[C@@H](CCN)C(=O)N[C@@H](C(=O)N[C@H](CC(C)C)C(=O)N[C@H](CC(C)C)C(=O)N[C@@H](CCN)C(=O)N[C@H](C)C(=O)N[C@H](CC(C)C)C(=O)N[C@H](CO)C(=O)N[C@H](CO)C(N)=O)[C@H](C)O)[C@H](C)O
notes: Designed 26-residue AMP; Ser26; Lys13/Lys16 specificity determinants; also called D102(5 Dab-1)
MIC (µM) against A. baumannii strain 649 in 25% human serum (no serum: 0.4) (serum proteins): 0.7 µM
PA (self-association parameter) [3]: 0 min

The next lines start with results.

MIC 101887 [1]: 0.7 µM (≈ 1.89 µg/mL)
MIC 961997 [1]: 0.7 µM (≈ 1.89 µg/mL)
MIC 963618 [1]: 0.7 µM (≈ 1.89 µg/mL)
MIC 964304 [1]: 1.5 µM (≈ 4.05 µg/mL)
MIC 977751 [1]: 0.7 µM (≈ 1.89 µg/mL)
MIC 981653 [1]: 0.7 µM (≈ 1.89 µg/mL)
MIC 1002956 [1]: 0.7 µM (≈ 1.89 µg/mL)
MIC 1007660 [1]: 0.7 µM (≈ 1.89 µg/mL)
MIC 1010282 [1]: 0.7 µM (≈ 1.89 µg/mL)
MIC 1035166 [1]: 0.7 µM (≈ 1.89 µg/mL)
Molecule: CC(=O)N[C@H](CCCCN)C(=O)N[C@H](CC(C)C)C(=O)N[C@@H](CCN)C(=O)N[C@H](CO)C(=O)N[C@H](CC(C)C)C(=O)N[C@H](CC(C)C)C(=O)N[C@@H](CCN)C(=O)N[C@@H](C(=O)N[C@H](CC(C)C)C(=O)N[C@H](CO)C(=O)N[C@@H](CCN)C(=O)N[C@H](C)C(=O)N[C@H](CCCCN)C(=O)N[C@H](C)C(=O)N[C@H](C)C(=O)N[C@H](CCCCN)C(=O)N[C@H](CC(C)C)C(=O)N[C@@H](CCN)C(=O)N[C@@H](C(=O)N[C@H](CC(C)C)C(=O)N[C@H](CC(C)C)C(=O)N[C@@H](CCN)C(=O)N[C@H](C)C(=O)N[C@H](CC(C)C)C(=O)N[C@H](CO)C(=O)N[C@@H](CCN)C(N)=O)[C@H](C)O)[C@H](C)O [D86(Lys^1-6Dab-1), Ac-KL(L-Dab)SLL(L-Dab)TLS(L-Dab)AKAAKL(L-Dab)TLL(L-Dab)ALS(L-Dab)-amide]
HC50 Fold Improvement (human red blood cells): >186
hemolytic activity against red blood cells from four blood donors (human red blood cells): very little hemolytic activity
HC50 (human red blood cells): >742 µM

MIC MB9941 [2]: 0.4 µM (≈ 1.07 µg/mL)
MIC MB9949 [2]: 0.7 µM (≈ 1.88 µg/mL)
MIC MB9951 [2]: 0.7 µM (≈ 1.88 µg/mL)
MIC MB9952 [2]: 0.7 µM (≈ 1.88 µg/mL)
MIC MB9953 [2]: 1.4 µM (≈ 3.76 µg/mL)
MIC MB9955 [2]: 0.7 µM (≈ 1.88 µg/mL)
MIC MB9963 [2]: 0.7 µM (≈ 1.88 µg/mL)
MIC 101887 [1]: 0.7 µM (≈ 1.88 µg/mL)
MIC 961997 [1]: 1.5 µM (≈ 4.03 µg/mL)
MIC 963618 [1]: 0.4 µM (≈ 1.07 µg/mL)
MIC 964304 [1]: 0.7 µM (≈ 1.88 µg/mL)
MIC 977751 [1]: 0.7 µM (≈ 1.88 µg/mL)
MIC 981653 [1]: 0.4 µM (≈ 1.07 µg/mL)
MIC 1002956 [1]: 0.4 µM (≈ 1.07 µg/mL)
MIC 1007660 [1]: 0.4 µM (≈ 1.07 µg/mL)
MIC 1010282 [1]: 0.7 µM (≈ 1.88 µg/mL)
MIC 1035166 [1]: 0.7 µM (≈ 1.88 µg/mL)
Molecule: CC(=O)N[C@H](CCCCN)C(=O)N[C@H](CC(C)C)C(=O)N[C@@H](CCN)C(=O)N[C@H](CO)C(=O)N[C@H](CC(C)C)C(=O)N[C@H](CC(C)C)C(=O)N[C@@H](CCN)C(=O)N[C@@H](C(=O)N[C@H](CC(C)C)C(=O)N[C@H](CO)C(=O)N[C@@H](CCN)C(=O)N[C@H](C)C(=O)N[C@H](CCCCN)C(=O)N[C@H](C)C(=O)N[C@H](C)C(=O)N[C@H](CCCCN)C(=O)N[C@H](CC(C)C)C(=O)N[C@@H](CCN)C(=O)N[C@@H](C(=O)N[C@H](CC(C)C)C(=O)N[C@H](CC(C)C)C(=O)N[C@@H](CCN)C(=O)N[C@H](C)C(=O)N[C@H](CC(C)C)C(=O)N[C@H](CO)C(=O)N[C@H](CO)C(N)=O)[C@H](C)O)[C@H](C)O [D102(Lys^1Ser^26-5Dab-1), Ac-KL(L-Dab)SLL(L-Dab)TLS(L-Dab)AKAAKL(L-Dab)TLL(L-Dab)ALS(Ser)-amide]
HC50 Fold Improvement (human red blood cells): >177
